According to ChEMBL document CHEMBL3132825, “Preparation of phenylethylbenzamide derivatives as modulators of DNMT3 activity” (Medchemcomm, 2013):
The source made the active and inactive calls. No cut-off for these calls is given here.

What was measured:
MDA-MB-231 [1] = test: Inhibition of DNMT in human MDA-MB-231 cells assessed as reduction in methylation level at 200 uM by luminometric methylation assay; format: cell-based
[2] = target: Histone-lysine N-methyltransferase, H3 lysine-79 specific (Homo sapiens) (UniProt Q8TEK3); test: Inhibition of DOT1L (unknown origin) using [methyl-3H]SAM and biotinylated nucleosome PRC2 and H3K27Me3 activator peptide up to 80 uM by [3H]methyl group incorporation assay
Sequence of Histone-lysine N-methyltransferase, H3 lysine-79 specific (Homo sapiens) (Q8TEK3 whole entry, looked up): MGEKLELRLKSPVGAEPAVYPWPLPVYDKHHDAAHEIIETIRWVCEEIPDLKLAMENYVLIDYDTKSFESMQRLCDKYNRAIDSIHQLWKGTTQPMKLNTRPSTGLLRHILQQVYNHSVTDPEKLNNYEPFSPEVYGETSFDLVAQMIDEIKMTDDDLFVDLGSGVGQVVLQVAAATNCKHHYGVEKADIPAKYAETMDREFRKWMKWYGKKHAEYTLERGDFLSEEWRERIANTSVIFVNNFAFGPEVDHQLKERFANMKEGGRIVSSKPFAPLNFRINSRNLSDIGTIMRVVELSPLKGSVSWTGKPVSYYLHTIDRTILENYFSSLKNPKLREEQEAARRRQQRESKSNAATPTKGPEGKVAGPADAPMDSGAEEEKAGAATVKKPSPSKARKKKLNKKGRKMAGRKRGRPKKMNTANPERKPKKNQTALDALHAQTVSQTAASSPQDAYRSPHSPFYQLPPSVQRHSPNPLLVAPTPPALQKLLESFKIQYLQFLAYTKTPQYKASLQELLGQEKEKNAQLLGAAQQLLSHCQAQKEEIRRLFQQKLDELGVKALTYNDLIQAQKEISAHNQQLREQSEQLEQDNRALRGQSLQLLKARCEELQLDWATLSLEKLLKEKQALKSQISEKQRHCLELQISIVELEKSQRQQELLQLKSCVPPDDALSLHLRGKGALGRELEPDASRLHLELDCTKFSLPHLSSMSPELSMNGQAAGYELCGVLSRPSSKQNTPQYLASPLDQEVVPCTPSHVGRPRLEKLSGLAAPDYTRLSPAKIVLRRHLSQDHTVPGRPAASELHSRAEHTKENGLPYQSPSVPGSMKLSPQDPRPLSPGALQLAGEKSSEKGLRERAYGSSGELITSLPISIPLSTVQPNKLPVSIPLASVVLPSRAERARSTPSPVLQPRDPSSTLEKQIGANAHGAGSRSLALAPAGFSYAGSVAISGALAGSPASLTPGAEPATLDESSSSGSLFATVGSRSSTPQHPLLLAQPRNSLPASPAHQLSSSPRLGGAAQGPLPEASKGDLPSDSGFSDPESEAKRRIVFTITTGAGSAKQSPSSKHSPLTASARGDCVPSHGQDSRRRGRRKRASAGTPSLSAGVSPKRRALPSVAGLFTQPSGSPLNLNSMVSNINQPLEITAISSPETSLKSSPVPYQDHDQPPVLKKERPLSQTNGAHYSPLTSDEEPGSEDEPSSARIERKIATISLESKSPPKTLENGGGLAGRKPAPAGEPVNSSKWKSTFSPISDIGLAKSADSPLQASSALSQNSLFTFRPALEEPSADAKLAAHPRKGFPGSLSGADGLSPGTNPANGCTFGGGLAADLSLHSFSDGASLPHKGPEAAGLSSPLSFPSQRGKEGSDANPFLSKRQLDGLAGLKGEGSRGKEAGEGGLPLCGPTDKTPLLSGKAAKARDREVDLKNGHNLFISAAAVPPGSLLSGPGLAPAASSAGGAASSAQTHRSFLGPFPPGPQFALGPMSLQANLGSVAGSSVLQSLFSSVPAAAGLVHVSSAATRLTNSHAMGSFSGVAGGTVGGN

MDA-MB-231 [3] = test: Toxicity against human MDA-MB-231 cells; format: cell-based
[4] = target: T1, DNA (cytosine-5)-methyltransferase 3A (Homo sapiens, UniProt Q9Y6K1); test: Inhibition of human DNMT3A catalytic domain (623 to 912 amino acids) at 100 uM after 1 hr by fluorescence assay
T1 sequence (Q9Y6K1 whole entry, looked up, the tested form may be a part): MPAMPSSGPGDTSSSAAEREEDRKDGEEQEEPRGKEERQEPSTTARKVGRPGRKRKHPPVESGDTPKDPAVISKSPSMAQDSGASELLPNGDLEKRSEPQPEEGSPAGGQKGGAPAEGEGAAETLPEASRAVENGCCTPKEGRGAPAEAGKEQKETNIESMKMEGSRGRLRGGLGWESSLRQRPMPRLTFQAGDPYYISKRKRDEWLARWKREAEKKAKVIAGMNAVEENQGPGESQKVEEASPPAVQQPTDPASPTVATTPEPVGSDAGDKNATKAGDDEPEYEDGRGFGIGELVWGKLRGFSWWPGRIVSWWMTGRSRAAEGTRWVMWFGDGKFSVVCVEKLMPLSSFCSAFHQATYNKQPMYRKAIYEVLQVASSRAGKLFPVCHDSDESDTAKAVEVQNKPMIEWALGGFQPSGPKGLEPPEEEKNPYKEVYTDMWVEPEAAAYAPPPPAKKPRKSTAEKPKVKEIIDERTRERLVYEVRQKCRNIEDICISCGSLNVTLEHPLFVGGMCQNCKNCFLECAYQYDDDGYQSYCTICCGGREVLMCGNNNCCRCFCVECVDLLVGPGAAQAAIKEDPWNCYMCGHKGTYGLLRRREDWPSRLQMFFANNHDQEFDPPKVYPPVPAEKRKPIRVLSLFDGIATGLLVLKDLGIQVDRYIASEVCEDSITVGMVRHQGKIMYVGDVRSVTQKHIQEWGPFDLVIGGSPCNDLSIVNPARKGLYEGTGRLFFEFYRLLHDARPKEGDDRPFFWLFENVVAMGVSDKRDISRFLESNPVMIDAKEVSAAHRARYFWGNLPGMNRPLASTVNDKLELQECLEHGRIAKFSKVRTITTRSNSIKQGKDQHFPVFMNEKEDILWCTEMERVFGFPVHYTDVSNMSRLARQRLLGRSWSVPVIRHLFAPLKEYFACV

MDA-MB-231 [5] = test: Inhibition of DNMT in human MDA-MB-231 cells assessed as reduction in methylation level at 100 uM by luminometric methylation assay; format: cell-based
[6] = target: Histone-lysine N-methyltransferase EZH2 (Homo sapiens) (UniProt Q15910); test: Inhibition of EZH2 (unknown origin) using [methyl-3H]SAM and biotinylated nucleosome PRC2 and H3K27Me3 activator peptide up to 80 uM by [3H]methyl group incorporation assay
Sequence of Histone-lysine N-methyltransferase EZH2 (Homo sapiens) (Q15910 whole entry, looked up, the tested form may be a part): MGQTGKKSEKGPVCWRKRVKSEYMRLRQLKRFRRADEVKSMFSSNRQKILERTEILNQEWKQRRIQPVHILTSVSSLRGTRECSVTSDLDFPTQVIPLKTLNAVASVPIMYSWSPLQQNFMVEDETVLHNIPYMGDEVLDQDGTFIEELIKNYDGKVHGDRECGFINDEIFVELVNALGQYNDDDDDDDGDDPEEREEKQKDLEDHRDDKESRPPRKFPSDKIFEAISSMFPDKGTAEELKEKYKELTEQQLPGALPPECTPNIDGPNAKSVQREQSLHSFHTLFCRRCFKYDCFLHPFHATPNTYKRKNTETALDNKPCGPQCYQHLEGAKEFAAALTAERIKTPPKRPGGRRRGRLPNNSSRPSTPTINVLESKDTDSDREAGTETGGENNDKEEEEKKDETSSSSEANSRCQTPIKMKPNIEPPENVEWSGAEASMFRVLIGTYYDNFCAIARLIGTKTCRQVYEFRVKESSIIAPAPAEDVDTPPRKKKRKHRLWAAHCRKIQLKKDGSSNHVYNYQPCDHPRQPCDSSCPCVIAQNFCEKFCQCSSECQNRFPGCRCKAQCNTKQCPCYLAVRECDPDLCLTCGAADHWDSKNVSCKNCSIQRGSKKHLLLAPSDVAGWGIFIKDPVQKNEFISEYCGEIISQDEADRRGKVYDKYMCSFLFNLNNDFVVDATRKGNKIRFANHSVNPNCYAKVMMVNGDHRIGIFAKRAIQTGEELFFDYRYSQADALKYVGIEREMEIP

[7] = target: T1, DNA (cytosine-5)-methyltransferase 3A; test: Inhibition of human DNMT3A catalytic domain (623 to 912 amino acids) at 10 uM after 1 hr by fluorescence assay
[8] = target: DNA (cytosine-5)-methyltransferase 1 (Homo sapiens) (UniProt P26358); test: Inhibition of human DNMT1 using [methyl-3H]SAM and biotinylated hemimethylated DNA duplex at 100 uM by [3H]methyl group incorporation assay
Sequence of DNA (cytosine-5)-methyltransferase 1 (Homo sapiens) (P26358 whole entry): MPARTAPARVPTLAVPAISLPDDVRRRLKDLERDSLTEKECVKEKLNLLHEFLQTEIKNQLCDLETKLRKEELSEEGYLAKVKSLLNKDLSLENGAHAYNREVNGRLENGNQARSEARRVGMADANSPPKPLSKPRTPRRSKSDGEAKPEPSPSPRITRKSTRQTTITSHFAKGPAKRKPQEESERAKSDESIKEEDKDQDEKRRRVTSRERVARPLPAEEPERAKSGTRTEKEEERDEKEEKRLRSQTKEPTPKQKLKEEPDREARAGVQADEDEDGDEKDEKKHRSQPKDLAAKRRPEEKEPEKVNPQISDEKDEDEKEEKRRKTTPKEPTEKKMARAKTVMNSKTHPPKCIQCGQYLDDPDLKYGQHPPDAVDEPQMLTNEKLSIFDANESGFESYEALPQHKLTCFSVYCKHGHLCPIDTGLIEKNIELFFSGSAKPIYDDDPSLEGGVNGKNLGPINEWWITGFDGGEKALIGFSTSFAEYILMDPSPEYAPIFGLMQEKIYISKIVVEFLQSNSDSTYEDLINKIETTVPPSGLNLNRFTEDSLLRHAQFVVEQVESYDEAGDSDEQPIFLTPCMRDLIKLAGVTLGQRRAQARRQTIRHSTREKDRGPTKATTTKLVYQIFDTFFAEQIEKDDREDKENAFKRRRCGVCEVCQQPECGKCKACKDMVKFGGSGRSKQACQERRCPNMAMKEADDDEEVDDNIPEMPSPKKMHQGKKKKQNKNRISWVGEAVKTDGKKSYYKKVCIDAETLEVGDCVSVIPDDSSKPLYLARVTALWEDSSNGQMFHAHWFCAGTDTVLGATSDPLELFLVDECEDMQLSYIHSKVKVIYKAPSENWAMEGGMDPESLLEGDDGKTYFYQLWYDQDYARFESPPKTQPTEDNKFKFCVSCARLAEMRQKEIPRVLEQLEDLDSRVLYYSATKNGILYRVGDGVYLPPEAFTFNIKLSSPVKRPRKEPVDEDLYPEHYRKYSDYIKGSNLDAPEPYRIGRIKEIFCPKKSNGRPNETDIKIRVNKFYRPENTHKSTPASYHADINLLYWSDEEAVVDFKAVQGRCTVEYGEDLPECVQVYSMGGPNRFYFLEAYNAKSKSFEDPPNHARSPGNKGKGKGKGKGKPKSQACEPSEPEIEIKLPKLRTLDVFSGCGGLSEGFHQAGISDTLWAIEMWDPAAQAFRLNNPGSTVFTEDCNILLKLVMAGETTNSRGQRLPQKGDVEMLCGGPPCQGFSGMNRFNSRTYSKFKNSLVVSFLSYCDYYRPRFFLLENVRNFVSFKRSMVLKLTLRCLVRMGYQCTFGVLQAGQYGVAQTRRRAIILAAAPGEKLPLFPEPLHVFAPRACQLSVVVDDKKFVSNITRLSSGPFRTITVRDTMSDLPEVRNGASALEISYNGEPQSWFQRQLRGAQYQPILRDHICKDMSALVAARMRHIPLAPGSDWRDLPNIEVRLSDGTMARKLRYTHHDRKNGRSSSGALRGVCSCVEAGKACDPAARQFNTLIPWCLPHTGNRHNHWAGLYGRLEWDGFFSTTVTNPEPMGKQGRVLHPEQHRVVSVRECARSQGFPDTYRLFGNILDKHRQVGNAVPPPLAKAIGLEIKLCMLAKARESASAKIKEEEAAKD

[9] = target: DNA (cytosine-5)-methyltransferase 1 (Homo sapiens) (UniProt P26358); test: Inhibition of human DNMT1 using [methyl-3H]SAM and biotinylated hemimethylated DNA duplex at 50 to 200 uM by [3H]methyl group incorporation assay
MDA-MB-231 [10] = test: Inhibition of DNMT in human MDA-MB-231 cells assessed as reduction in methylation level at 1 uM by luminometric methylation assay; format: cell-based
[11] = target: T1, DNA (cytosine-5)-methyltransferase 3A; test: Inhibition of human DNMT3A catalytic domain (623 to 912 amino acids) after 1 hr by fluorescence assay

SMILES	inhibition [2]	inhibition [6]	inhibition [8]	further results
COc1ccc(Cl)cc1C(=O)N[C@@H](Cc1ccc(OCC(=O)O)cc1)C(=O)O	inactive	inactive	< 20%	inhibition (MDA-MB-231 [1]): Active; Activity (MDA-MB-231 [3]): Non-toxic; inhibition [4]: > 60%; inhibition (MDA-MB-231 [5]): inactive; inhibition [7]: > 13%
COc1ccc(Cl)cc1C(=O)NCCc1ccc(CCC(=O)N2CCOCC2)cc1	inactive	inactive	< 20%	–
COc1cccc(C(=O)NCCc2ccc(CCC(=O)O)cc2)c1	inactive	inactive	< 20%	–
O=C(O)CCc1ccc(CCNC(=O)c2cccnc2)cc1	inactive	inactive	< 20%	–
O=C(O)CCc1ccc(CCNC(=O)c2ccccc2Br)cc1	inactive	inactive	< 20%	–
Nc1ncn([C@@H]2O[C@H](CO)[C@@H](O)[C@H]2O)c(=O)n1	–	–	–	inhibition (MDA-MB-231 [10]): Active
COc1ccc(Cl)cc1NC(=O)CCc1ccc(CCC(=O)O)cc1	inactive	inactive	< 20%	–
O=C(O)CCc1ccc(CCNC(=O)c2cc(C(F)(F)F)ccc2Cl)cc1	inactive	inactive	< 20%	Activity (MDA-MB-231 [3]): Toxic; inhibition [4]: > 60%; inhibition [7]: inactive
O=C(O)CCc1ccc(CCNC(=O)c2ccccc2F)cc1	inactive	inactive	< 20%	–
COc1ccc(Cl)cc1C(=O)NCCc1ccccc1	inactive	inactive	< 20%	–
COc1ccc(Cl)cc1CNCCc1ccc(CCC(=O)O)cc1	inactive	inactive	< 20%	–
O=C(O)CCc1ccc(CCNC(=O)c2ccc([N+](=O)[O-])cc2)cc1	inactive	inactive	14%	Activity (MDA-MB-231 [3]): Toxic; inhibition [4]: > 60%; inhibition [7]: > 13%
O=C(O)CCc1ccc(CCNC(=O)c2cccc(Cl)c2)cc1	inactive	inactive	< 20%	–

The next lines start with results.

inhibition [2]	inhibition [6]	inhibition [8]	SMILES	further results
inactive	inactive	15%	COc1ccc(Cl)cc1C(=O)NCCc1ccc(OCC(=O)O)cc1	inhibition (MDA-MB-231 [1]): inactive; Activity (MDA-MB-231 [3]): Non-toxic; inhibition [4]: > 60%; inhibition (MDA-MB-231 [5]): inactive; inhibition [7]: > 13%
inactive	inactive	< 20%	COc1ccc(Cl)cc1C(=O)NCCc1ccc(CC(C)C(=O)O)cc1 (stereo not drawn)	–
inactive	inactive	2.9%	COc1ccc(Cl)cc1C(=O)NCCc1ccc(CCC(=O)O)cc1	inhibition [9]: inactive; inhibition [4]: inactive; inhibition [7]: inactive
inactive	inactive	< 20%	O=C(O)CCc1ccc(CCNC(=O)c2cc(Cl)ccc2F)cc1	–
inactive	inactive	< 20%	COc1ccc(Cl)cc1C(=O)NCCc1ccc(C(=O)O)cc1	–
inactive	inactive	< 20%	COc1ccc(Cl)cc1C(=O)NCCc1ccc(/C=C/C(=O)O)cc1	–
inactive	inactive	< 20%	CNC(=O)CCc1ccc(CCNC(=O)c2cc(Cl)ccc2OC)cc1	–
inactive	inactive	< 20%	COc1ccc(Cl)cc1C(=O)NCCc1ccc(CCC(=O)N(C)C)cc1	–
inactive	inactive	< 20%	COc1ccc(Cl)cc1C(=O)NCCc1ccc(CC(=O)O)cc1	–
inactive	inactive	< 20%	COc1ccc(Cl)cc1C(=O)Nc1ccc(CCC(=O)O)cc1	inhibition [4]: > 60%; inhibition [7]: > 13%
inactive	inactive	< 20%	COc1ccc(Cl)cc1C(=O)NCCc1cccc(CCC(=O)O)c1	–
inactive	inactive	16%	COc1ccc(Cl)cc1C(=O)NCCc1ccc(O)cc1	Activity (MDA-MB-231 [3]): Toxic; EC50 [11]: 36 µM; inhibition [4]: > 60%; inhibition [7]: > 13%
inactive	inactive	< 20%	COc1ccc(Cl)cc1C(=O)NCCc1ccc(CCCO)cc1	–
inactive	inactive	< 20%	COc1ccc(Cl)cc1C(=O)NCCc1ccc(CCC(N)=O)cc1	–
inactive	inactive	< 20%	COc1ccc(Cl)cc1C(=O)N(C)CCc1ccc(CCC(=O)O)cc1	–
inactive	inactive	< 20%	COc1ccc(Cl)cc1C(=O)NCCc1ccc(C(C)CC(=O)O)cc1 (stereo not drawn)	–
inactive	inactive	< 20%	CCc1ccc(CCNC(=O)c2cc(Cl)ccc2OC)cc1	–
inactive	inactive	< 20%	COc1ccc(Cl)cc1C(=O)NCc1ccc(CCC(=O)O)cc1	inhibition [4]: > 60%; inhibition [7]: > 13%
